{"source": "patent US12358960B2", "about": "“Selective targeting of ubiquitin- and ubiquitin-like E1-activating enzymes by structurally-stabilized peptides” (Dana-Farber Cancer Institute, Inc., priority 2019, dated 2025)", "key": {"[1]": {"biological_target": "T1, UBA1 (Homo sapiens, UniProt P22314)", "T1 sequence (P22314 1-1058)": "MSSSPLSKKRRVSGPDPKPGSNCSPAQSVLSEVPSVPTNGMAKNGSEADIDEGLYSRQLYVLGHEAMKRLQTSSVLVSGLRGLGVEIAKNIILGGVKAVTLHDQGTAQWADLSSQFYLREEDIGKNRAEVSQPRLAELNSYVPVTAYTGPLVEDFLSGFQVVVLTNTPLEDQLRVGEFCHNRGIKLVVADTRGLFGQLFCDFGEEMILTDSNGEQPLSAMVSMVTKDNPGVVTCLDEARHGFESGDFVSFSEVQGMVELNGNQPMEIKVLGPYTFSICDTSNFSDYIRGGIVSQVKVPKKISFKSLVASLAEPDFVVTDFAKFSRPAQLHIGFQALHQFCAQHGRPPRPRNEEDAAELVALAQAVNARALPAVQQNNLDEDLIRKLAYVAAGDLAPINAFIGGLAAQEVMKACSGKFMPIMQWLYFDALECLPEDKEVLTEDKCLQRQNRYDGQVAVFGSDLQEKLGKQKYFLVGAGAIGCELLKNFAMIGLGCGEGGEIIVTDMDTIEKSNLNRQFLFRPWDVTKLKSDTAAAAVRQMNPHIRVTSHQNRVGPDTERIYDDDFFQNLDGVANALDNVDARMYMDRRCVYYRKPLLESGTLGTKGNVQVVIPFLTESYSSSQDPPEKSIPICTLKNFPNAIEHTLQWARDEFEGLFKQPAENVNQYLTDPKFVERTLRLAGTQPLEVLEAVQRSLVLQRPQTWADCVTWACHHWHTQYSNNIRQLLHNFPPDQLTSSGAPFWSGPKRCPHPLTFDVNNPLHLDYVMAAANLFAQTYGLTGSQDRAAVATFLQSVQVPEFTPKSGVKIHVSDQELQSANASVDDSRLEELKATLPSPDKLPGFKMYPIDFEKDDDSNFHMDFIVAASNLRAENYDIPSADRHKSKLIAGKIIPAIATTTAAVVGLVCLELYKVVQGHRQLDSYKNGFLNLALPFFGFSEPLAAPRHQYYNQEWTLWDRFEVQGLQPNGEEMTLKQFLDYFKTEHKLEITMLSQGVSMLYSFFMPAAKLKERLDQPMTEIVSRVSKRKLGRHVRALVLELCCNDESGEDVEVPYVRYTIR", "experiment": "Streptavidin-biotin pull-down with recombinant protein", "format": "binding", "conditions": "biotinylated peptide, silver stain", "experimental": "(§1) Streptavidin-biotin pull-down assays: For recombinant protein pull-downs, 10 pmol recombinant human UBA1 was incubated with 5 nmol C-terminally biotinylated SAH-UBE2A or DMSO vehicle control in a total volume of 1 mL binding buffer (50 mM NaCl, 20 mM HEPES, pH 7.4, 5 mM DTT) for 1.5 hours at 4° C. 30 μL of pre-equilibrated streptavidin agarose beads were then added and incubated for an additional 1.5 hours at 4° C. The beads were pelleted by centrifugation and washed three times with NP-40 buffer (20 mM HEPES, pH 7.4, 50 mM NaCl, 5 mM DTT, 0.5% [v/v] NP-40) before eluting the protein sample from the beads by heating at 70° C. for 10 min in 3×SDS loading buffer. Samples were subjected to electrophoresis and silver staining (Pierce 24612). […] Proteins were separated by SDS-PAGE gel electrophoresis and detected by western blot against UBE1 (Abcam ab34711). […] Conjugation of ubiquitin to E2 by E1 is monitored by conversion of free E2 (17 kDa) to E2˜ubiquitin conjugate (26 kDa). Quantitation of percent inhibition was calculated from densitometry of silver stain images. Error bars represent ±1 SEM calculated from three independent experiments."}, "[2]": {"biological_target": "T2, native UBA1 (Homo sapiens, UniProt P22314)", "T2 construct": "endogenous in cells; host or cells: HeLa cell lysate", "T2 sequence (P22314 1-1058)": "T1 sequence (P22314 1-1058)", "experiment": "Streptavidin-biotin pull-down from HeLa cell lysate, western blot for UBA1", "format": "binding", "conditions": "biotinylated peptide", "experimental": "as §1"}}, "note": "Bridge positions count the residues as written; N and C are the ends. Square brackets hold non-standard residues; d marks the D form. Peptide text beside a SMILES is read from it. R8 = C=CCCCCCC[C@@](C)(N)C(=O)O; S5 = C=CCCC[C@](C)(N)C(=O)O; Nle = CCCC[C@H](N)C(=O)O", "data": [{"smiles": "CCCC[C@H](NC(C)=O)C(=O)N[C@@H](CO)C(=O)N[C@H](C(=O)N1CCC[C@H]1C(=O)N[C@]1(C)CCCCCCC=CCCC[C@@](C)(C(=O)N[C@@H](Cc2ccccc2)C(=O)N[C@@H](CCCCN)C(=O)N[C@@H](CCCNC(=N)N)C(=O)N[C@@H](CC(C)C)C(=O)N[C@@H](CCC(N)=O)C(N)=O)NC(=O)[C@H](CCCNC(=N)N)NC(=O)[C@H](CCCC)NC(=O)[C@H](CC(C)C)NC(=O)[C@H](CCCNC(=N)N)NC(=O)[C@H](CCCNC(=N)N)NC(=O)[C@H](CCCNC(=N)N)NC1=O)[C@@H](C)O", "note": "[SAH-UBE2A-11, BSTPX1RRRLBRX2FKRLQ] (Ac-[Nle]STP[R8]RRRL[Nle]R[S5]FKRLQ-NH2; staple 5-12)", "values": [{"measurement": "direct binding to recombinant UBA1, streptavidin capture", "setting": "[1]", "result": "direct binding of SAH-UBE2A to UBA1"}, {"measurement": "direct binding to native UBA1 in HeLa cell lysate", "setting": "[2]", "result": "direct binding of SAH-UBE2A to native UBA1"}]}]}
